Source: patent publication US6902748B1, “Medicines manufactured from old platycodon extracts” (Jang Saeng Doraji Co., Ltd, priority 1999, dated 2005)

Tested on: edema of both feet of SD-rats
Test: Edema suppression in rheumatic arthritis model (heat-killed Mycobacterium injected into right sole)
Format: in vivo
Details: 4 mg/day; about 20 days after injection
Procedure: At about 20 days after injection of 0.6 mg/kg heat-killed 5. Mycobacterium histolyticm to the right sole of the feet of SD-rats, the degree of inhibition against inflammation was investigated by measuring the size of edema of both feet. The rats were divided into 7 groups and examined; feed group (group A) as a control group, not being caused edema, group B which was fed with 4 mg/day of predisolone as edema suppression agents, group C which was fed with 160 mg/day of ordinary platycodon extract, group D which was fed with 20 mg/day of 14 kinds of herbal medicine extract, group E which was fed with 160 mg/day of the old platycodon extract, group F which was fed with 40 mg/day of herbal medicine extract and 160 mg/day of the old platycodon extract. Each group was assigned to have 6 SD-rats.

C[C@]12C=CC(=O)C=C1CC[C@@H]1[C@@H]2[C@@H](O)C[C@@]2(C)[C@H]1CC[C@]2(O)C(=O)CO [predisolone]
Edema suppression activity in the left foot: 83.8%
Edema suppression activity in the right foot: 84.5%
